Consider 15 compounds from patent publication US9902722B2, “Biaryl kinase inhibitors” (BRISTOL-MYERS SQUIBB COMPANY, priority 2014, dated 2018).

For the assay, the target named is GST-Xa-hAAK1 (Homo sapiens (Human), UniProt Q2M2I8). Nature of the assay: AAK1 Kinase Assay.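 Note: each compound tested across an eleven-point concentration series, with IC50 obtained through non-linear regression fitting.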 In kind it is biochemical. Particulars: bacterially expressed GST-Xa-hAAK1 3.5 nM; ATP 22 μM; peptide substrate 1.5 μM; 3 hours at room temperature; Caliper LabChip 3000.
Chain of GST-Xa-hAAK1 (Q2M2I8 whole entry): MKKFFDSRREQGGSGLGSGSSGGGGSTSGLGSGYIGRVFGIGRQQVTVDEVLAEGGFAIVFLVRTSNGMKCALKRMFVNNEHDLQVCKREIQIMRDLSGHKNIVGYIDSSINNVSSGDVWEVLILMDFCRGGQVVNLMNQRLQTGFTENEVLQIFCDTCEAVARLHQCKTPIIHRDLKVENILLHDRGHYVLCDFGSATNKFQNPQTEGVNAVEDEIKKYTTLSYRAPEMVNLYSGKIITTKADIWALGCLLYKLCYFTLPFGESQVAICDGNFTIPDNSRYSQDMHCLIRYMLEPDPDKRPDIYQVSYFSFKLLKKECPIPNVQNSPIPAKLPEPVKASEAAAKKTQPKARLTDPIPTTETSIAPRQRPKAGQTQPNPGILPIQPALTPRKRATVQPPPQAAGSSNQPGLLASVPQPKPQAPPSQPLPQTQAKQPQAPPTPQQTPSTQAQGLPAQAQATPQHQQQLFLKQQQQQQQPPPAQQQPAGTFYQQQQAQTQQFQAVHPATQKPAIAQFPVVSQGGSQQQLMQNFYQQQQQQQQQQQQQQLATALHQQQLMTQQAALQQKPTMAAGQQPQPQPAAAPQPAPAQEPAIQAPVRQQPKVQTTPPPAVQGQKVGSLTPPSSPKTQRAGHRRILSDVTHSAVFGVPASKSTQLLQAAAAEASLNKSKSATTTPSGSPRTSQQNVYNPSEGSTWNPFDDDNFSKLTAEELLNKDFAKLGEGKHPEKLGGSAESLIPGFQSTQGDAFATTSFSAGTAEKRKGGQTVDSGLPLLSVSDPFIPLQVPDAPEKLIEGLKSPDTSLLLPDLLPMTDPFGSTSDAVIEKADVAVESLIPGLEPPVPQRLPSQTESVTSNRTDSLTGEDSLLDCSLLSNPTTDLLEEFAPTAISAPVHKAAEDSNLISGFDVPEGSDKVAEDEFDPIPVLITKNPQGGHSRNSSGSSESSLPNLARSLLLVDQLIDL
Description: The assays were performed in U-bottom 384-well plates. […] The reactions were initiated by the combination of bacterially expressed, GST-Xa-hAAK1 with substrates and test compounds. The reactions were incubated at room temperature for 3 hours and terminated by adding 60 μl of 35 mM EDTA buffer to each sample. […] Compounds were dissolved at 10 mM in dimethylsulfoxide (DMSO) and evaluated at eleven concentrations. IC50 values were derived by non-linear regression analysis.
For `CC(C)C[C@](C)(N)COc1ccc(-c2ccnc3ccccc23)cc1C1CC1` [Example 74, (S)-1-(2-cyclopropyl-4-(quinolin-4-yl)phenoxy)-2,4-dimethylpentan-2-amine], the IC50 (commonly the concentration that inhibits the measured activity by half) amounted to 0.07 nM.
In turn, `COC(=O)Nc1cc(-c2ccc(OC[C@@](C)(N)CC(C)C)c(C(F)(F)F)c2)ccn1` [Example 20, (S)-methyl (4-(4-((2-amino-2,4-dimethylpentyl)oxy)-3-(trifluoromethyl)phenyl)pyridin-2-yl)carbamate] showed an IC50 of 0.34 nM.
On to `Cc1cc(-c2cc(C(F)F)c(OC[C@@](C)(N)CC(C)C)cn2)ccn1` [Example 122, (S)-1-((4-(difluoromethyl)-2′-methyl-[2,4′-bipyridin]-5-yl)oxy)-2,4-dimethylpentan-2-amine], for which the half-inhibitory concentration (IC50) was 0.51 nM.
On to `Cc1cc(-c2ccc(OC[C@@](C)(N)CC(C)C)c(C(F)(F)F)c2)ccn1` [Example 45, (S)-2,4-dimethyl-1-(4-(2-methylpyridin-4-yl)-2-(trifluoromethyl)phenoxy)pentan-2-amine], for which 1.2 nM corresponded to half-maximal inhibition (IC50).
The same measure for `CC(C)C[C@](C)(N)COc1ccc(-c2ccnc(C(F)F)c2)cc1OC(F)(F)F` [Example 38, (S)-1-(4-(2-(difluoromethyl)pyridin-4-yl)-2-(trifluoromethoxy)phenoxy)-2,4-dimethylpentan-2-amine]: 0.79 nM; for `CC(C)C[C@](N)(CF)COc1ccc(-c2ccnc(C(F)F)c2)nc1C(F)F` [Example 185, (R)-1-((2′,6-bis(difluoromethyl)-[2,4′-bipyridin]-5-yl)oxy)-2-(fluoromethyl)-4-methylpentan-2-amine]: 66 nM; for `CC(C)C[C@](C)(N)COc1cnc(-c2ccnc3cc(C(F)(F)F)ccc23)cc1Cl` [Example 242, (S)-1-((4-chloro-6-(7-(trifluoromethyl)quinolin-4-yl)pyridin-3-yl)oxy)-2,4-dimethylpentan-2-amine]: 1.9 nM.
`Cc1cc(-c2ccc(OC[C@@](C)(N)CC(C)C)c(C(F)F)n2)ccn1` [Example 119, (S)-1-((6-(difluoromethyl)-2′-methyl-[2,4′-bipyridin]-5-yl)oxy)-2,4-dimethylpentan-2-amine] displayed an IC50 of 3.2 nM.
The same measure for `CC(C)C[C@](C)(N)COc1ccc(-c2ccnc3cc(Cl)ccc23)cc1C(F)(F)F` [Example 88, (S)-1-(4-(7-chloroquinolin-4-yl)-2-(trifluoromethyl)phenoxy)-2,4-dimethylpentan-2-amine]: 0.46 nM.
`Cc1cc(-c2ccnc(C(F)F)c2)ncc1OC[C@@](C)(N)CC(C)C` [Example 125, (S)-1-((2′-(difluoromethyl)-4-methyl-[2,4′-bipyridin]-5-yl)oxy)-2,4-dimethylpentan-2-amine] had an IC50 of 1.6 nM.
With `CC(=O)Nc1cc(-c2ccc(OC[C@@H](N)CC(C)C)c(OC(F)(F)F)c2)ccn1` [Example 6, (S)—N-(4-(4-((2-amino-4-methylpentyl)oxy)-3-(trifluoromethoxy)phenyl)pyridin-2-yl)acetamide], the half-inhibitory concentration (IC50) was determined as 0.47 nM.
`CC(C)C[C@](C)(N)COc1ncc(-c2ccnc3ccncc23)cc1C#N` [Example 80, (S)-2-((2-amino-2,4-dimethylpentyl)oxy)-5-(1,6-naphthyridin-4-yl)nicotinonitrile] showed a half-inhibitory concentration (IC50) of 19 nM.
The same measure for `COC(=O)Nc1cc(-c2ccc(OC[C@@H](N)CC(C)C)c(F)c2)ccn1` [Example 13, (S)-methyl (4-(4-((2-amino-4-methylpentyl)oxy)-3-fluorophenyl)pyridin-2-yl)carbamate]: 1.1 nM; for `Cc1cc(-c2cc(C)c(OC[C@@](C)(N)CC(C)C)c(C)n2)ccn1` [Example 212, (S)-2,4-dimethyl-1-((2′,4,6-trimethyl-[2,4′-bipyridin]-5-yl)oxy)pentan-2-amine]: 1020 nM; for `CC(C)C[C@](C)(N)COc1ccc(-c2ccnc3ccccc23)cc1C(F)(F)F` [Example 69, (S)-2,4-dimethyl-1-(4-(quinolin-4-yl)-2-(trifluoromethyl)phenoxy)pentan-2-amine]: 0.76 nM.
